From ChEMBL document CHEMBL1255366, “First report of cfr-mediated resistance to linezolid in human staphylococcal clinical isolates recovered in the United States” (2008) come the findings set out here.

Converted amounts (≈) assume the structure as drawn. Where only a bound is given, the exact number is not on record here.

Format in all cases: functional
Assay [1] relates to Staphylococcus epidermidis. Briefly: Antimicrobial activity against Staphylococcus epidermidis isolate 426-3147L expressing cfr gene by broth microdilution CLSI method. A general note: In broth dilution the organism is exposed to a series of concentrations in liquid medium.
Assay [2] deals with Staphylococcus aureus. Briefly: Antimicrobial activity against linezolid-resistant Staphylococcus aureus isolate 004-737X expressing cfr and ermA gene isolated from paraplegic patient by broth microdilution method.
Assay [3] deals with Staphylococcus aureus. In words: Antimicrobial activity against linezolid-resistant Staphylococcus aureus isolate 004-737X expressing cfr and ermA gene isolated from paraplegic patient by Etest method.
The test system of assay [4] is Staphylococcus epidermidis. Briefly: Antimicrobial activity against Staphylococcus epidermidis isolate 426-3147L expressing cfr gene by Etest method.
Assay [5] has as its system Staphylococcus epidermidis. Briefly: Antimicrobial activity against Staphylococcus epidermidis isolate 426-3147L expressing cfr gene by disk diffusion method. In general terms: In agar diffusion tests the substance spreads into inoculated agar from a disc or well.
For assay [6], the system named is Staphylococcus aureus. Briefly: Antimicrobial activity against linezolid-resistant Staphylococcus aureus isolate 004-737X expressing cfr and ermA gene isolated from paraplegic patient by disk diffusion method.

In general, MIC refers to the least concentration at which growth counts as inhibited. A higher MIC goes with weaker potency. As for `O=C(N[C@H](CO)[C@H](O)c1ccc([N+](=O)[O-])cc1)C(Cl)Cl` [CHLORAMPHENICOL], the MIC (in assay [1]; against Staphylococcus aureus [2]) was greater than 256 µg/mL in each case.

For the compound `O=C(O)c1cn(C2CC2)c2cc(N3CCNCC3)c(F)cc2c1=O` [CIPROFLOXACIN], in the assay with Staphylococcus aureus [2], the MIC is greater than 32 µg/mL.

With `CCC[C@@H]1C[C@@H](C(=O)N[C@@H]([C@H]2O[C@H](SC)[C@H](O)[C@@H](O)[C@H]2O)[C@H](C)Cl)N(C)C1` [CLINDAMYCIN], the MIC (in assay [1]; with Staphylococcus aureus [2]) was greater than 256 µg/mL throughout.

As to `CC[C@H]1OC(=O)[C@H](C)[C@@H](O[C@H]2C[C@@](C)(OC)[C@@H](O)[C@H](C)O2)[C@H](C)[C@@H](O[C@@H]2O[C@H](C)C[C@H](N(C)C)[C@H]2O)[C@](C)(O)C[C@@H](C)C(=O)[C@H](C)[C@@H](O)[C@]1(C)O` [ERYTHROMYCIN], the values for the MIC (in assay [1]; in the assay with Staphylococcus aureus [2]) were greater than 4 µg/mL and greater than 256 µg/mL, respectively.

For `CC(=O)NC[C@H]1CN(c2ccc(N3CCOCC3)c(F)c2)C(=O)O1` [LINEZOLID], the MIC in assay [1] is greater than 256 µg/mL; in the assay with Staphylococcus aureus [3] it was 8 µg/mL (≈ 23.7 µM); in assay [4] it was greater than 256 µg/mL; with Staphylococcus aureus [2] it was 8 µg/mL (≈ 23.7 µM). In addition, the “diameter of the inhibition zone (DIZ)” value in assay [5] was found to be 6 mm; with Staphylococcus aureus [6] it was 19 mm.

`C/C(=C\C(=O)OCCCCCCCCC(=O)O)C[C@@H]1OC[C@H](C[C@@H]2O[C@H]2[C@@H](C)[C@H](C)O)[C@@H](O)[C@H]1O` [MUPIROCIN]: the MIC in assay [1] came out at 64 µg/mL (≈ 128 µM); against Staphylococcus aureus [2], 0.25 µg/mL (≈ 0.499 µM).

For `Cc1onc(-c2ccccc2)c1C(=O)N[C@@H]1C(=O)N2[C@@H]1SC(C)(C)[C@@H]2C(=O)O` [OXACILLIN], the MIC (in assay [1]; in the assay with Staphylococcus aureus [2]) was greater than 2 µg/mL each time.

`C=C[C@]1(C)C[C@@H](OC(=O)CS[C@@H]2C[C@H]3CC[C@@H](C2)N3C)[C@]2(C)[C@H](C)CC[C@]3(CCC(=O)[C@H]32)[C@@H](C)[C@@H]1O` [RETAPAMULIN]: the MIC is greater than 32 µg/mL in assay [1] and 32 µg/mL (≈ 61.8 µM) against Staphylococcus aureus [2].

As for `CN(C)[C@@H]1C(O)=C(C(N)=O)C(=O)[C@@]2(O)C(O)=C3C(=O)c4c(O)cccc4[C@@](C)(O)[C@H]3C[C@@H]12` [TETRACYCLINE], the MIC (in assay [1]; with Staphylococcus aureus [2]) was greater than 8 µg/mL in each case.
